Reference: BigSolDB 2.1

CCCCCCC1(CCCCCC)c2cc(Br)ccc2-c2ccc(Br)cc21
solubility (mole fraction)
Details | 283.15 K | 293.15 K | 303.15 K | 313.15 K | 323.15 K
in 1,4-dioxane | – | 0.0466 | 0.0801 | 0.113 | 0.17
in THF | 0.0977 | 0.112 | 0.127 | 0.146 | 0.158
in acetonitrile | 0.000305 | 0.000473 | 0.000684 | 0.000954 | 0.0012
in chloroform | 0.0364 | 0.041 | 0.0483 | 0.0543 | 0.0613
in dichloromethane | 0.0468 | 0.0633 | 0.0807 | 0.0987 | 0.118
in ethanol | 0.00158 | 0.00182 | 0.00209 | 0.00233 | 0.00264
in ethyl acetate | 0.0433 | 0.0613 | 0.0873 | 0.114 | 0.144
in isopropanol | 0.000772 | 0.00117 | 0.00191 | 0.00293 | 0.00392
in methanol | 0.000142 | 0.000189 | 0.000293 | 0.000427 | 0.000582
in n-butanol | 0.00329 | 0.00586 | 0.00935 | 0.0127 | 0.0165
in n-hexane | 0.0382 | 0.0578 | 0.0907 | 0.123 | 0.163
in toluene | 0.0918 | 0.121 | 0.152 | 0.188 | 0.242
